# What was measured:
# [1] = system: Jurkat HIV-luciferase clones; experiment: Jurkat latency reversal assay; assay type: cell-based; settings: Homo sapiens, 48 h; Jurkat latency reversal assay potency; read-out: Jurkat pEC50 (converted)
# How it was run: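 Luminescence read-out: Steady-Glo after 48 h, 37° C, on mixed Jurkat HIV-luc clones (C16, 115, N6; 5,000 cells/well total). Cpd 14-pt 3-fold dilutions, duplicate, top 10 μM, 0.5% DMSO. EC50 + max % activation vs vehicle via 4-parameter fit.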
# [2] = molecular target: cIAP1-BIR3 (Homo sapiens (Human), UniProt Q13490); experiment: BIR binding assay (FRET competition), cIAP1 BIR3; settings: for cIAP1 BIR3 vs BIR2 separation window: fold separation (FS) for cIAP1
# How it was run: (§1)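 615/665 nm FRET ratio. Compound, His-domain and 200 nM AF647-SMAC peptide incubated 60 min, then 2 nM Eu-W1024 for 30 min. Domains: cIAP1-BIR3 50 nM; XIAP-BIR3 100 nM; cIAP1-BIR2, cIAP2-BIR2 325 nM each. 15-pt 3-fold series; variable-slope IC50.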
# [3] = molecular target: cIAP1-BIR2 (Homo sapiens (Human), UniProt Q13490); experiment: BIR binding assay (FRET competition), cIAP1 BIR2
# How it was run: as §1
# [4] = molecular target: cIAP2-BIR3 (Homo sapiens (Human), UniProt Q13489); experiment: BIR binding assay (FRET competition), cIAP2 BIR3; settings: for cIAP2 BIR3 vs BIR2 separation window: fold separation (FS) for cIAP2
# [5] = molecular target: cIAP2-BIR2 (Homo sapiens (Human), UniProt Q13489); experiment: BIR binding assay (FRET competition), cIAP2 BIR2
# How it was run: as §1
# [6] = molecular target: XIAP-BIR3 (Homo sapiens (Human), UniProt P98170); experiment: BIR binding assay (FRET competition), XIAP BIR3
# How it was run: as §1
# Chain of cIAP2-BIR3 (Q13489 238-349): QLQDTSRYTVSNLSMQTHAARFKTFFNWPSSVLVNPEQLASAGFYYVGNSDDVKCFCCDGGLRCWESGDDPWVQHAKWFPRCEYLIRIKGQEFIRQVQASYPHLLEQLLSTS
# Chain of cIAP1-BIR3 (Q13490 253-363): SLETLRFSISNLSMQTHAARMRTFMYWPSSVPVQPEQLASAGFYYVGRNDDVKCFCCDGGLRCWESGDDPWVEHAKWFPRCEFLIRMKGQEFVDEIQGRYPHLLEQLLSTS
# Chain of cIAP2-BIR2 (Q13489 158-242): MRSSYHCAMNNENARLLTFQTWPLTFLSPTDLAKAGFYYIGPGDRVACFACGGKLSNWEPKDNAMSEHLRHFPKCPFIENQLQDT
# Chain of XIAP-BIR3 (P98170 241-356): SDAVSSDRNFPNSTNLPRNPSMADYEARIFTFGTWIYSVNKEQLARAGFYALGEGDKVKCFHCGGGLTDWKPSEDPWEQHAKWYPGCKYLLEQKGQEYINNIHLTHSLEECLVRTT
# Chain of cIAP1-BIR2 (Q13490 173-257): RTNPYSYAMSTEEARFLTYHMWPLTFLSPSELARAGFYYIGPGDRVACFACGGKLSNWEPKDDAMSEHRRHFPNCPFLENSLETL
Structure (SMILES),EC50 [1] [nM],IC50 [2] [nM],cIAP1 BIR3 vs BIR2 separation window [2],IC50 [3] [nM],IC50 [4] [nM],cIAP2 BIR3 vs BIR2 separation window [4],IC50 [5] [nM],IC50 [6] [nM]
"C[C@@H]1CN(CC(=O)N2CC(C)(C)c3[nH]c(=O)c(Cc4ccc(F)cc4)cc32)[C@@H](CN2CCO[C@H](COc3cc(C#N)cc(OC[C@@H]4CN(C[C@H]5CN[C@H](C)CN5CC(=O)N5CC(C)(C)c6[nH]c(=O)c(Cc7ccc(F)cc7)cc65)CCO4)c3)C2)CN1 [Example 76, 3,5-bis(((S)-4-(((2R,5R)-1-(2-(6-(4-fluorobenzyl)-3,3-dimethyl-5-oxo-2,3,4,5-tetrahydro-1H-pyrrolo[3,2-b]pyridin-1-yl)-2-oxoethyl)-5-methylpiperazin-2-yl)methyl)morpholin-2-yl)methoxy)benzonitrile]",0.49 to 12.6,7.94 to 15.8,"+++ (10,000>FS>1,000)",3160 to 10000,1.38 to 7.94,"+++ (10,000>FS>1,000)",1000 to 3160,15.8 to 31.6
"C[C@@H]1CN(CC(=O)N2CC(C)(C)c3[nH]c(=O)c(Cc4ccc(F)cc4)cc32)[C@@H](CN2CCO[C@H](COCCCCCOC[C@@H]3CN(C[C@H]4CN[C@H](C)CN4CC(=O)N4CC(C)(C)c5[nH]c(=O)c(Cc6ccc(F)cc6)cc54)CCO3)C2)CN1 [Example 82, 1,1′-(2,2′-((3R,3′R,6R,6′R)-(((2S,2'S)-((pentane-1,5-diylbis(oxy))bis(methylene))bis(morpholine-2,4-diyl))bis(methylene))bis(3-methylpiperazine-6,1-diyl))bis(acetyl))bis(6-(4-fluorobenzyl)-3,3-dimethyl-1,2,3,4-tetrahydro-5H-pyrrolo[3,2-b]pyridin-5-one)]",0.49 to 12.6,15.8 to 31.6,"++++ (FS>10,000)",10000 to 51300,15.8 to 31.6,"+++ (10,000>FS>1,000)",1000 to 3160,31.6 to 501
"C[C@@H]1CN(CC(=O)N2CC(C)(C)c3[nH]c(=O)c(Cc4ccc(F)cc4)cc32)[C@@H](CN2CCO[C@H](COCCOCCOC[C@@H]3CN(C[C@H]4CN[C@H](C)CN4CC(=O)N4CC(C)(C)c5[nH]c(=O)c(Cc6ccc(F)cc6)cc54)CCO3)C2)CN1 [Example 83, 1,1′-(2,2′-((3R,3′R,6R,6′R)-(((2S,2'S)-(((oxybis(ethane-2,1-diyl))bis(oxy))bis(methylene))bis(morpholine-2,4-diyl))bis(methylene))bis(3-methylpiperazine-6,1-diyl))bis(acetyl))bis(6-(4-fluorobenzyl)-3,3-dimethyl-1,2,3,4-tetrahydro-5H-pyrrolo[3,2-b]pyridin-5-one)]",12.6 to 63.1,15.8 to 31.6,"+++ (10,000>FS>1,000)",3160 to 10000,15.8 to 31.6,"+++ (10,000>FS>1,000)",3160 to 10000,15.8 to 31.6
"Cc1cc(OC[C@@H]2CN(C[C@H]3CN[C@H](C)CN3CC(=O)N3CC(C)(C)c4[nH]c(=O)c(Cc5ccc(F)cc5)cc43)CCO2)cc(OC[C@@H]2CN(C[C@H]3CN[C@H](C)CN3CC(=O)N3CC(C)(C)c4[nH]c(=O)c(Cc5ccc(F)cc5)cc43)CCO2)c1 [Example 86, 1,1′-(2,2′-((3R,3′R,6R,6′R)-(((2S,2'S)-(((5-methyl-1,3-phenylene)bis(oxy))bis(methylene))bis(morpholine-2,4-diyl))bis(methylene))bis(3-methylpiperazine-6,1-diyl))bis(acetyl))bis(6-(4-fluorobenzyl)-3,3-dimethyl-1,2,3,4-tetrahydro-5H-pyrrolo[3,2-b]pyridin-5-one)]",0.49 to 12.6,7.94 to 15.8,"+++ (10,000>FS>1,000)",1000 to 3160,7.94 to 15.8,"+++ (10,000>FS>1,000)",1000 to 3160,15.8 to 31.6
"C[C@@H]1CN(CC(=O)N2CC(C)(C)c3[nH]c(=O)c(Cc4ccc(F)cc4)cc32)[C@@H](CN2CCO[C@H](COc3ccc(Cl)c(OC[C@@H]4CN(C[C@H]5CN[C@H](C)CN5CC(=O)N5CC(C)(C)c6[nH]c(=O)c(Cc7ccc(F)cc7)cc65)CCO4)c3)C2)CN1 [Example 89, 1,1′-(2,2′-((3R,3′R,6R,6′R)-(((2S,2'S)-(((4-chloro-1,3-phenylene)bis(oxy))bis(methylene))bis(morpholine-2,4-diyl))bis(methylene))bis(3-methylpiperazine-6,1-diyl))bis(acetyl))bis(6-(4-fluorobenzyl)-3,3-dimethyl-1,2,3,4-tetrahydro-5H-pyrrolo[3,2-b]pyridin-5-one)]",0.49 to 12.6,15.8 to 31.6,"+++ (10,000>FS>1,000)",3160 to 10000,7.94 to 15.8,"+++ (10,000>FS>1,000)",1000 to 3160,15.8 to 31.6
"C[C@@H]1CN(CC(=O)N2CC(C)(C)c3c2cc(Cc2ccc(F)cc2)c(=O)n3C)[C@@H](CN2CCO[C@H](COCC#CC#CCOC[C@@H]3CN(C[C@H]4CN[C@H](C)CN4CC(=O)N4CC(C)(C)c5c4cc(Cc4ccc(F)cc4)c(=O)n5C)CCO3)C2)CN1 [Example 116, 1,1′-(2,2′-((3R,3′R,6R,6′R)-(((2S,2'S)-((hexa-2,4-diyne-1,6-diylbis(oxy))bis(methylene))bis(morpholine-2,4-diyl))bis(methylene))bis(3-methylpiperazine-6,1-diyl))bis(acetyl))bis(6-(4-fluorobenzyl)-3,3,4-trimethyl-1,2,3,4-tetrahydro-5H-pyrrolo[3,2-b]pyridin-5-one)]",316 to 3310,15.8 to 31.6,"+++ (10,000>FS>1,000)",3160 to 10000,15.8 to 31.6,"+++ (10,000>FS>1,000)",3160 to 10000,31.6 to 501
"C[C@@H]1CN(CC(=O)N2CC(C)(C)c3[nH]c(=O)c(Cc4ccc(F)cc4)cc32)[C@@H](CN2CCO[C@H](C(=O)NCCCCCCCCNC(=O)[C@@H]3CN(C[C@H]4CN[C@H](C)CN4CC(=O)N4CC(C)(C)c5[nH]c(=O)c(Cc6ccc(F)cc6)cc54)CCO3)C2)CN1 [Example 119, (2S,2'S)-N,N′-(octane-1,8-diyl)bis(4-(((2R,5R)-1-(2-(6-(4-fluorobenzyl)-3,3-dimethyl-5-oxo-2,3,4,5-tetrahydro-1H-pyrrolo[3,2-b]pyridin-1-yl)-2-oxoethyl)-5-methylpiperazin-2-yl)methyl)morpholine-2-carboxamide)]",12.6 to 63.1,1.38 to 7.94,"+++ (10,000>FS>1,000)",1000 to 3160,1.38 to 7.94,"+++ (10,000>FS>1,000)",22.4 to 1000,7.94 to 15.8
"C[C@@H]1CN(CC(=O)N2CC(C)(C)c3[nH]c(=O)c(Cc4ccc(F)cc4)cc32)[C@@H](CN2CCO[C@H](C(=O)NCCCCCCCCCCNC(=O)[C@@H]3CN(C[C@H]4CN[C@H](C)CN4CC(=O)N4CC(C)(C)c5[nH]c(=O)c(Cc6ccc(F)cc6)cc54)CCO3)C2)CN1 [Example 120, (2S,2'S)-N,N′-(decane-1,10-diyl)bis(4-(((2R,5R)-1-(2-(6-(4-fluorobenzyl)-3,3-dimethyl-5-oxo-2,3,4,5-tetrahydro-1H-pyrrolo[3,2-b]pyridin-1-yl)-2-oxoethyl)-5-methylpiperazin-2-yl)methyl)morpholine-2-carboxamide)]",63.1 to 316,7.94 to 15.8,"+++ (10,000>FS>1,000)",1000 to 3160,7.94 to 15.8,"+++ (10,000>FS>1,000)",1000 to 3160,15.8 to 31.6
